Changes are numbered by the printed parent chain.

What all share (assay): E. coli hemG growth inhibition by herbicide, AtPPO1 variant
Common to all, as to format: cell-based
What all share (settings): read-out: percentage growth inhibition

One assay addresses T1, AtPPO1 T461Q (Arabidopsis thaliana, UniProt P55826, T461Q).
T1 construct: expressed in transfected cells; host or cells: E. coli BL21(DE3) hemG, pET24a plasmid
T1 sequence (P55826 35-537 T461Q): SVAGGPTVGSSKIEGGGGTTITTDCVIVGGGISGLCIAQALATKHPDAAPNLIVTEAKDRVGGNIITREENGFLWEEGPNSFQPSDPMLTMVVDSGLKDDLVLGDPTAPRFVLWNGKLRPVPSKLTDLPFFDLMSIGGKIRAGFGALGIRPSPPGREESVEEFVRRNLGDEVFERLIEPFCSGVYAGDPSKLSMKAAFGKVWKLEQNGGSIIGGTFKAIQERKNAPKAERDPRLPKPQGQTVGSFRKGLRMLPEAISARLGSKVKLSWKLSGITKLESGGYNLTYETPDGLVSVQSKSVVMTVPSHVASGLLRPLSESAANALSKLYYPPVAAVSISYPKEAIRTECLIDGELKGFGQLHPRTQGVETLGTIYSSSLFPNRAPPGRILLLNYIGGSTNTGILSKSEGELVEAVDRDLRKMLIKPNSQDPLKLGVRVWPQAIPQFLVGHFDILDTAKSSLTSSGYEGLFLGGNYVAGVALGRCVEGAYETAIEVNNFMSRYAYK
An excerpt: (§1) A pET24a plasmid containing a DNA sequence encoding a variant of PPO1 derived from Arabidopsis thaliana (AtPPO1), codon-optimised for expression in E. coli and under control of a T7 promoter, was synthesised by Twist Bioscience (SEQ ID NO:3). This plasmid was used as the basis of a Site Saturation Variant Library (SSVL) that substituted the codons at 352 amino acid positions for codons that encoded one of the other 19 amino acids, or removed the codon altogether, resulting in a translation product with a deletion at that position.
(§2) The SSVL was batch-transformed by electroporation into an E. coli BL21(DE3) hemG strain with the hemG gene replaced by CmR conferring resistance to chloramphenicol and spread onto LA supplemented with 50 μg/mL kanamycin, 25 μg/mL chloramphenicol and 20 μg/mL hematin. Each batch consisted of all the plasmids that contained variants at two sites.
(§3) Colonies from batch transformations were inoculated into 500 μL of Terrific broth supplemented with 50 μg/mL kanamycin, 25 μg/mL chloramphenicol and 20 μg/mL hematin in 96-deepwell blocks. Cultures were grown for 24 hours at 37° C. with shaking at 250 rpm.
(§4) Overnight cultures were centrifuged and the cell pellets resuspended with 500 μL of Terrific broth. The resuspended cultures were used at a ratio of 1:100 to inoculate a fresh 96-deepwell block containing 500 μL of Terrific broth supplemented with 0.1 mM IPTG, 50 μg/mL kanamycin, 25 μg/mL chloramphenicol and 6.25 ppm of herbicide […] or E or 0.78 ppm herbicide B or DMSO. Assay cultures were grown for 24 hours at 37° C. with shaking at 250 rpm with the OD600 being measured at 24 hours post inoculation. Strains that grew in both DMSO and herbicide were determined to be herbicide tolerant with the percentage of growth inhibition being calculated as below: […]

Another assay concerns the target T2, AtPPO1 G404A (Arabidopsis thaliana, UniProt P55826, G404A).
T2 construct: expressed in transfected cells; host or cells: E. coli BL21(DE3) hemG (pET24a, T7 promoter)
T2 sequence (P55826 35-537 G404A): T1 sequence (P55826 35-537 T461Q) with G370A, Q427T
Text: as §1, §2, §3, §4

For a further assay, the target named is T3, AtPPO1 Y426M (Arabidopsis thaliana, UniProt P55826, Y426M).
T3 construct: expressed in transfected cells; host or cells: E. coli BL21(DE3) hemG (pET24a, T7 promoter)
T3 sequence (P55826 35-537 Y426M): T1 sequence (P55826 35-537 T461Q) with Y392M, Q427T
Text: as §1, §2, §3, §4

For a further assay, the target named is T4, AtPPO1 T431F (Arabidopsis thaliana, UniProt P55826, T431F).
T4 construct: expressed in transfected cells; host or cells: E. coli BL21(DE3) hemG, pET24a plasmid
T4 sequence (P55826 35-537 T431F): T1 sequence (P55826 35-537 T461Q) with T397F, Q427T
Text: as §1, §2, §3, §4

As to `C#CCN1C(=O)C(F)(F)Oc2cc(F)c(-n3c(=O)n(C)c(=S)n(C)c3=O)cc21` [Herbicide B, trifludimoxazin], the inhibition (commonly the change of the read-out against control, counted positive when it falls) at 0.78 ppm worked out at 31% at AtPPO1 T461Q, 12% on AtPPO1 G404A, 7% at AtPPO1 Y426M and 41% at AtPPO1 T431F.
For `CCOC(=O)[C@]1(C)CC(c2cc(-n3c(=O)n(C)c(=S)n(C)c3=O)c(F)cc2Cl)=NO1` [Herbicide D, ethyl (5S)-3-[2-chloro-5-(3,5-dimethyl-2,6-dioxo-4-thioxo-1,3,5-triazinan-1-yl)-4-fluoro-phenyl]-5-methyl-4H-isoxazole-5-carboxylate], the inhibition at 6.25 ppm at AtPPO1 T461Q worked out at 22%; on AtPPO1 G404A, 4%; on AtPPO1 Y426M, 25%; at AtPPO1 T431F it was 0%.
Take `CC(C)N(C)S(=O)(=O)NC(=O)c1cc(-n2c(=O)cc(C(F)(F)F)n(C)c2=O)c(F)cc1Cl` [Herbicide E, saflufenacil]: the inhibition at 6.25 ppm came out at 35% on AtPPO1 T461Q, 2% on AtPPO1 G404A, 17% at AtPPO1 Y426M and 37% at AtPPO1 T431F.

The values are drawn from patent US20260297542A1, “HERBICIDE RESISTANT PLANTS” (SYNGENTA CROP PROTECTION AG, priority 2023, published 2026).
